# Like-named read-outs stand apart in the source and are kept apart here.
# What was measured:
# MDA-MB-231 cells [1] = experiment: Cell proliferation assay (label-free live cell counting), MDA-MB-231; assay type: cell-based, human
# Procedure: The human triple-negative breast cancer cell line MDA-MB-231 (ATCC HTB-26) (absence of estrogen and progesterone receptors, […]) and the non-cancerous breast cell line MCF-12A (ATCC CRL-10782) were purchased from ATCC (Manassas, VA, USA). MDA-MB-231 cells were cultured in DMEM-HG cell growth medium supplemented with 10% (v/v) FBS. MCF-12A cells were cultured in DMEM/F12 medium supplemented with 20 ng/mL hEGF, 100 ng/mL cholera toxin, 0.01 mg/mL bovine insulin, 500 ng/mL hydrocortisone and 5% (v/v) horse serum. Cells were cultured in monolayers in a sterile environment at 37 °C with 5% CO2 humidified atmosphere. Under these conditions, the population doubling time was 25.5 ± 0.9 h and 20.6 ± 3.1 h for MDA-MB-231 and MCF-12A cells, respectively. The cell cultures were routinely screened for mycoplasma contamination, yielding negative results.
# Cells were seeded in 96-well microplates at the cell density 1.5 × 10^4 cells/cm^2 (final volume 200 µL/well) and left 24 h to attach. […] Label-free kinetic live monitoring of cell proliferation was performed using LionheartFX automated microscope (BioTek, Winooski, VT, USA) with direct image acquisition of cells in microplates at 0, 24, 48 and 72 h post-addition of the tested compounds. Acquired 4X images were processed using Gen 5 Image Analysis software (BioTek, Winooski, VT, USA) that allows for identification and counting of individual cells per image. The normalized cell growth (%) was calculated using the following formula: C(t) = [(Number of Treated Cells(t) − Number of Treated Cells(0))/(Number of Untreated Cells(t) − Number of Untreated Cells(0))] × 100, where C(t) is the percent of net cell growth over time, Number of Treated Cells(t) is the count of cells treated with drug at each time point, Number of Treated Cells(0) is the count cells treated with drug at time 0 h, Number of Untreated Cells(t) is the count of untreated (control) cells at each time point, Number of Untreated Cells(0) is the count of untreated (control) cells at time 0 h.
# MDA-MB-231 cells [2] = experiment: Cell migration, wound healing (scratch) assay; assay type: cell-based, human; details: from AUC0-18h of wound confluence, n = 5; for logEC50 (migration of MDA-MB-231 cells): mean ± SEM
# Procedure: The effect of compounds on cell migration was studied using wound healing assay (or scratch assay). Triple-negative breast cancer MDA-MB-231 cells were seeded in 24-well microplate at the cell density 12.5 × 10^4 cells/cm^2 (1 mL final volume) and left 24 h to attach and create a confluent monolayer. The cell monolayer was scratched with 200 µL pipette tip, producing a vertical straight wound in the middle of the well; growth medium was removed and wells were washed twice with growth medium to remove all detached cells. […] Wound closure was analyzed as a confluence of the initial cell-free area covered by migrating cells at the indicated time points measured with Gen 5 Image Analysis software. Confluence was calculated using the following formula: C(t) = [(Object Sum Area(t) − Object Sum Area(0))/(I(A) − Object Sum Area(0))] × 100, where C(t) is the percent wound confluence over time, Object Sum Area(t) is the area covered by cells at each time point, Object Sum Area(0) is the area covered by cells at time 0 h and I(A) is the total area of the 4X image.
# [3] = system: Ehrlich ascites carcinoma (EAC); details: 4 mg/kg, cited from earlier work; for tumor volume reduction: two injections per week for 2 weeks (cumulative 16 mg/kg); for deaths during treatment: two injections per week for 2 weeks
# [4] = Hematological and plasma biochemical analyses in tumor-bearing mice; assay type: in vivo; details: Pd2Spm 5 mg/kg/day, cisplatin 2 mg/kg/day, end of study
# Procedure: Red blood cells (RBC), hemoglobin (Hb), hematocrit (Hct), mean corpuscular volume (MCV) and mean corpuscular hemoglobin (MCH) were analyzed in a small aliquot of whole blood using ABX Micros 60 automated analyzer (Horiba ABX SAS, Montpellier, France). The remaining blood was centrifuged at 900× g for 15 min, and plasma was separated into aliquots and frozen at −80 °C for biochemical assays. Plasma parameters were analyzed using commercial kits for aspartate aminotransferase—AST (AST CP, A11A01629), alanine transaminase—ALT (ALT CP, A11A01627), cholesterol (CHOL CP, A11A01634), creatinine (Creatinine 120 CP, A11A01868), glucose (Glucose PAP CP, A11A01668), total protein (Total protein CP, A11A01669), triglycerides (Triglycerides CP, A11A01640) and urea (Urea CP, A11A01641). All parameters were determined with an automated analyzer Pentra 400 (ABX Horiba diagnostics, Montpellier, France).
# breast cancer cells = details: cited from earlier work
# [5] = mice; cited from earlier work
# MDA-MB-231 = details: cited from earlier work
# MDA-MB-468 TNBC cells = details: cited from earlier work
# [6] = MDA-MB-231, 24 h of incubation, n = 4
# [7] = MDA-MB-231, 24 h of incubation, n = 4, read-out: IC50 in µM [95% CI]
# [8] = MDA-MB-231, 48 h of incubation, n = 4
# [9] = MDA-MB-231, 48 h of incubation, n = 4, read-out: IC50 in µM [95% CI]
# [10] = MDA-MB-231, 72 h of incubation, n = 4
# [11] = MDA-MB-231, 72 h of incubation, n = 4, read-out: IC50 in µM [95% CI]
SMILES,logIC50 ± SEM (MDA-MB-231 cells [1]; [6]),IC50 (MDA-MB-231 cells [1]; [7]) [µM],logIC50 ± SEM (MDA-MB-231 cells [1]; [8]),IC50 (MDA-MB-231 cells [1]; [9]) [µM],logIC50 ± SEM (MDA-MB-231 cells [1]; [10]),IC50 (MDA-MB-231 cells [1]; [11]) [µM],logEC50 (migration of MDA-MB-231 cells) (MDA-MB-231 cells [2]),EC50 (MDA-MB-231 cells [2]) [µM],tumor volume reduction ([3]; first study) [%],tumor volume reduction ([3]; second study) [%],deaths during treatment ([3]; first study),deaths during treatment ([3]; second study),"IC50 (MDA-MB-231 cells [1]; MDA-MB-231, 24-72 h, read-out: IC50 values (range over incubation times)) [µM]","hematologic analysis (RBC, Hb, Htc, MCV, MCH) versus vehicle [4]","plasma biochemical analysis (urea, creatinine, glucose, AST, ALT, total proteins, triglycerides, total cholesterol) versus vehicle [4]",amount accumulated in breast cancer cells relative to cisplatin (breast cancer cells),accumulation in major organs relative to cisplatin [5],serum terminal half-life relative to cisplatin [5],IC50 values (MDA-MB-231),IC50 values (MDA-MB-468 TNBC cells)
"N.N.[Cl][Pt][Cl] [Cisplatin, cis-dichlorodiammine platinum(II), reference compound]",−5.459 ± 0.036,3.5,−6.005 ± 0.027,1,−6.043 ± 0.020,0.9,−4.329 ± 0.130,46.9,36.4,46.7,two associated deaths,no associated deaths,,,,,,,,
"NCCCNCCCCNCCCN.[Cl][Pd][Cl].[Cl][Pd][Cl] [Pd2Spm, dinuclear palladium(II)-spermine chelate]",−5.081 ± 0.024,8.3,−5.105 ± 0.022,7.9,−5.137 ± 0.021,7.3,−4.243 ± 0.113,57.2,,,,,7.3 to 8.3,no significant deviations,did not reveal changes,approximately four times lower,lower accumulation in major organs,very similar serum terminal half-life to cisplatin,within a low micromolar range,within a low micromolar range

# From paper PMC8869242 (Biomedicines, 2022)
